From US20260274904A1, “ANTIMICROBIAL NCR2 PEPTIDES” (Donald Danforth Plant Science Center, priority 2019, published 2026)
≈ marks a conversion by molar mass, not a printed value. Where a SMILES comes first, the peptide text is derived from it.

Tests used:
[1] = test system: Fusarium graminearum PH-1; format: cell-based; settings: F. graminearum, absorbance at 595 nm at 48 hours
F. graminearum = format: cell-based, Fusarium graminearum
F. virguliforme [2] = test: Resazurin cell viability assay; format: cell-based, Fusarium virguliforme
Procedure: (§1) The antifungal and anti-oomycete activity was conducted as described previously (Spelbrink et al. 2004; Sagaram et al. 2011; Velivelli et al. 2018) with minor modifications. The antifungal and anti-oomycete activity of NCR peptides were determined in an in vitro assay using 96-well microtiter plates. Fifty microliters of each protein dilution (0, 0.1, 0.3, 0.7, 1.5, 3 and 6 μM) was added to each well of the microtiter plate containing 50 μL of (zoo)spore suspension prepared in 2×SFM at a final concentration of 10^5 (zoo)spores/ml. The plates were incubated at room temperature and the quantitative fungal growth inhibition was estimated by measuring the absorbance at 595 nm using a Tecan Infinite M200 Pro (Tecan Systems Inc., San Jose, CA) microplate reader at 48 hours. The fungal/oomycete cell viability/cell killing was determined by the resazurin cell viability assay. After incubation at 48 hours, 10 μl of 0.1% resazurin solution was added to each well and re-incubated overnight. A change from blue to pink color indicates reduction of resazurin and cell viability.

F. oxysporum [3] = test: Resazurin cell viability assay; format: cell-based, Fusarium oxysporum
Procedure: as §1

P. capsici = test: Resazurin cell viability assay; format: cell-based, Phytophthora capsici
Botrytis cinerea [4] = test: Detached lettuce leaf infection assay (in planta antifungal activity); format: in vivo; settings: detached iceberg lettuce leaves, peptide 3, 6, and 12 μM drop inoculated, 48 hours
Botrytis cinerea [5] = settings: 48 h
F. virguliforme [6] = settings: 48 h
F. oxysporum [7] = settings: 48 h
[8] = test system: Phytophthora capsici LT263; settings: 48 h
[9] = Protein-phospholipid overlay assay (PIP Strips); settings: protein-lipid overlay, 1 μg/ml peptide, 100 pmol lipid per spot
Procedure: (§2) Briefly, lipid strips were blocked with 10 mL of blocking buffer, PBS-T/3% fat free BSA for 12-16 h at 4° C. with gentle agitation. […] After hybridization, protein solution was discarded and the strips were then washed with PBS-T three times with gentle agitation for 20 minutes each for 1 hour at room temperature. […] The lipid strips were washed with PBS-T two times with gentle agitation, for 15 minutes each wash, at room temperature. HRP-conjugated Mouse Anti-Rabbit IgG secondary antibody (GenScript Cat no A01827) diluted 1:4000 in blocking buffer was added to the lipid strips and incubated for 60 minutes at 4° C. After two washes with PBS-T, chemiluminescence was detected using SuperSignal® West Pico PLUS Sensitivity substrate kit (Thermo Scientific, Cat no: 34080 following the manufacturer's protocol.

[10] = Protein-phospholipid overlay assay (PIP Strips); settings: protein-lipid overlay, 1 μg/ml peptide, 100 pmol lipid per spot; remark: listed apart in the source
Procedure: as §2

[11] = Protein-phospholipid overlay assay (PIP Strips); settings: protein-lipid overlay, 1 μg/ml peptide, 100 pmol lipid per spot; remark: listed apart in the source
Procedure: as §2

[12] = Protein-phospholipid overlay assay (PIP Strips); settings: protein-lipid overlay, 1 μg/ml peptide, 100 pmol lipid per spot; remark: listed apart in the source
Procedure: as §2

[13] = Protein-phospholipid overlay assay (PIP Strips); settings: protein-lipid overlay, 1 μg/ml peptide, 100 pmol lipid per spot; remark: listed apart in the source
Procedure: as §2

[14] = Protein-phospholipid overlay assay (PIP Strips); settings: protein-lipid overlay, 1 μg/ml peptide, 100 pmol lipid per spot; remark: listed apart in the source
Procedure: as §2

[15] = Protein-phospholipid overlay assay (PIP Strips); settings: protein-lipid overlay, 1 μg/ml peptide, 100 pmol lipid per spot; remark: listed apart in the source
Procedure: as §2

[16] = Protein-phospholipid overlay assay (PIP Strips); settings: protein-lipid overlay, 1 μg/ml peptide, 100 pmol lipid per spot; remark: listed apart in the source
Procedure: as §2

[17] = Protein-phospholipid overlay assay (PIP Strips), overall; settings: protein-lipid overlay, 1 μg/ml peptide, 100 pmol lipid per spot
Procedure: as §2

CC[C@H](C)[C@H](NC(=O)[C@H](CCCNC(=N)N)NC(=O)[C@H](CCCNC(=N)N)NC(=O)[C@H](CCCNC(=N)N)NC(=O)[C@@H](NC(=O)[C@H](CS)NC(=O)[C@H](Cc1ccc(O)cc1)NC(=O)CNC(=O)[C@H](CCCCN)NC(=O)[C@H](CCCNC(=N)N)NC(=O)[C@H](CS)NC(=O)[C@H](CCCNC(=N)N)NC(=O)[C@H](C)NC(=O)[C@H](CCCNC(=N)N)NC(=O)[C@H](Cc1ccc(O)cc1)NC(=O)[C@H](CC(N)=O)NC(=O)[C@H](CCCCN)NC(=O)[C@@H](NC(=O)[C@@H](NC(=O)[C@H](CO)NC(=O)[C@H](CS)NC(=O)[C@H](CCC(=O)O)NC(=O)[C@H](CCCCN)NC(=O)[C@H](CC(=O)O)NC(=O)[C@H](CO)NC(=O)[C@@H](NC(=O)[C@H](CS)NC(=O)[C@@H]1CCCN1C(=O)[C@H](CCCCN)NC(=O)[C@H](CO)NC(=O)[C@H](CC(C)C)NC(=O)[C@H](CCC(N)=O)NC(=O)[C@@H](NC(=O)[C@H](Cc1ccccc1)NC(=O)[C@H](C)N)[C@@H](C)CC)[C@@H](C)CC)[C@@H](C)CC)C(C)C)C(C)C)C(=O)N[C@@H](CCCNC(=N)N)C(=O)O [NCR2] (H-AFIQLSKPCISDKECSIVKNYRARCRKGYCVRRRIR-OH; N-terminus and C-terminus assumed)
IC50 [1]: 1500 to 2000 nM
concentration at which cells were killed (resazurin assay) (F. graminearum): 3 µM
concentration at which cells were killed (resazurin assay) (F. virguliforme [2]): 3 µM
concentration at which cells were killed (resazurin assay) (F. oxysporum [3]): 1.5 µM
concentration of cell death (resazurin assay) (P. capsici): 3 µM
size of disease lesions caused by Botrytis cinerea (Botrytis cinerea [4]): smaller lesions compared to no peptide control
IC50 (Botrytis cinerea [5]): 1500 nM
MIC (Botrytis cinerea [5]): 2 to 3 µM
MIC (F. virguliforme [6]): 3 µM (≈ 13 µg/mL)
IC50 (F. oxysporum [7]): 500 nM
IC50 [8]: 2000 nM
MIC [8]: 3 µM (≈ 13 µg/mL)
binding to PI(3)P [9]: bound weakly
binding to PI(4)P [10]: bound weakly
binding to PI(5)P [11]: bound weakly
binding to PI(3,4)P2 [12]: bound weakly
binding to PI(3,5)P2 [13]: strongly binds
binding to PI(4,5)P2 [14]: bound weakly
binding to PI(3,4,5)P3 [15]: bound weakly
binding to phosphatidic acid (PA) [16]: bound weakly
binding to phospholipids (overall) [17]: bind to multiple phospholipids
